Reference: patent US11225465B2, “Albicidin derivatives, their use and synthesis” (TECHNISCHE UNIVERSITÄT BERLIN, priority 2017, dated 2022)
In brackets after ≈: the same amount, converted by molar mass. Like-named read-outs stand apart in the source and are kept apart here.

How the values were obtained:
E. coli DSM 1116 = test: Microdilution assay, MIC; format: cell-based; settings: Escherichia coli, read-out: MIC E. coli DSM1116
Description: (§1) The tests were performed using the micro dilution method.
(§2) The determination of MIC values was performed according to the ninth edition of the Approved Standard M07-A9 (CLSI. Methods for Dilution Antimicrobial Susceptibility Tests for Bacteria That Grow Aerobically; Approved Standard—Ninth Edition. CLSI document M07-A9. Wayne, Pa.: Clinical and Laboratory Standards Institute; 2012.)
(§3) The test was carried out for four different bacterial strains (E. coli DSM 1116 [gram negative], B. subtilis DSM 10 [gram positive], M. luteus DSM 1790 [gram positive], S. typhimurium TA100 [gram negative]). 20 μL of cryo stock of each strain were inoculated in 20 mL of LB media (Lysogeny broth: 10 g/L peptone, 5 g/L yeast extract, 5 g/L NaCl) followed by incubation over night at 37° C., 200 rpm. The test inoculum was adjusted by the 0.5 McFarland Standard (OD625 from 0.08 to 0.1). Within 15 min of preparation, the adjusted inoculum suspension was diluted in MHBII media (BBL T M Mueller-Hinton Broth II, Becton, Dickinson and Company, N.J./USA) so that each well contained approximately 5×10^5 CFU/mL in a final volume of 100 μL. 95 μL of the inoculum were applied per well and 5 μL of the (diluted) antibiotic substance were added.
(§4) Previously the dry antibiotic compounds were dissolved in DMSO (100%) with a concentration of 2560 μg/mL and the resulting stock solutions were further diluted in DMSO (100%). 5 μL of each antibiotic dilution were applied to the microdilution tray to reach final concentrations of 64 μg/mL to 0.008 μg/mL. One row of each well plate was left as a growth control without antibiotic substances and another row of the microdilution tray was used as sterility control (only MHB II-media). The antimicrobial effect of the solvent (DMSO) was tested by adding 5 μL DMSO to several wells without antibiotics.
(§5) Purity check and cell titer control were performed according to International Standard M07-A9 on Mueller-Hinton II Agar (Mueller Hinton II Broth, 15 g/L agar-agar).
(§6) Both microdilution trays and agar plates were incubated at 37° C. for 20 h and subsequently analyzed visually.

S. typhimurium TA100 = test: Microdilution assay, MIC; format: cell-based; settings: Salmonella enterica, 20 h, read-out: MIC S. typhimurium TA100
Description: as §1, §2, §3, §4, §5, §6

Bacillus subtilis DSM10 = test: Microdilution assay, MIC; format: cell-based; settings: read-out: MIC B. subtilis DSM10
Description: as §1, §2, §3, §4, §5, §6

[1] = test system: Micrococcus luteus DSM1790; test: Microdilution assay, MIC; format: cell-based; settings: read-out: MIC M. luteus DSM1790
Description: as §1, §2, §3, §4, §5, §6

[2] = test system: Staphylococcus aureus ATCC 29213; settings: n.a. for the compounds; cited from earlier work
[3] = test system: Pseudomonas aeruginosa ATCC 27853; settings: n.a. for the compounds; cited from earlier work
[4] = test system: Escherichia coli ATCC 25922; settings: n.a. for the compounds; cited from earlier work
[5] = test system: Escherichia coli ATCC 25922; test: MHK against further strains (Table 2); format: cell-based; settings: Nr. 1 Escherichia coli ATCC 25922; KBE/ml 2.80E+05
Description: as §1, §2

[6] = test system: Pseudomonas aeruginosa ATCC 27853; test: MHK against further strains (Table 2); format: cell-based; settings: Nr. 6 Pseudomonas aeruginosa ATCC 27853; KBE/ml 5.60E+05
Description: as §1, §2

[7] = test system: Staphylococcus aureus ATCC 29213; test: MHK against further strains (Table 2); format: cell-based; settings: Nr. 8 Staphylococcus aureus ATCC 29213; KBE/ml 6.60E+05
Description: as §1, §2

Structure (SMILES)	MIC (E. coli DSM 1116; DSM1116, 20 h) [µg/mL]	MIC (S. typhimurium TA100) [µg/mL]	MIC (Bacillus subtilis DSM10; DSM10, 20 h) [µg/mL]	MIC ([1]; DSM1790, 20 h) [µg/mL]	also measured
CCOc1c(NC(=O)c2ccc(NC(=O)c3ccc(NC(=O)[C@H](Cc4c[nH]nn4)NC(=O)c4ccc(NC(=O)/C(C)=C/c5ccc(O)cc5)cc4)cc3)c(OCC)c2O)ccc(C(=O)O)c1O [Compound 20]	16 (≈ 17.5 µM)	16 (≈ 17.5 µM)	31 (≈ 34 µM)	500 (≈ 548 µM)	–
COc1c(NC(=O)c2ccc(NC(=O)c3ccc(NC(=O)[C@@H](Cc4c[nH]cn4)NC(=O)c4ccc(NC(=O)/C(C)=C/c5ccc(O)cc5)cc4)cc3)c(OC)c2O)ccc(C(=O)O)c1O [Compound 15, D-His-albicidin]	125 (≈ 141 µM)	125 (≈ 141 µM)	1000 (≈ 1130 µM)	8000 (≈ 9050 µM)	–
COc1c(NC(=O)c2ccc(NC(=O)c3ccc(NC(=O)C(Cc4cn(C)cn4)NC(=O)c4ccc(NC(=O)/C(C)=C/c5ccc(O)cc5)cc4)cc3)c(OC)c2O)ccc(C(=O)O)c1O [Compound 5, L-Methyl-His-Albicidin]	125 (≈ 139 µM)	63 (≈ 70.2 µM)	500 (≈ 557 µM)	4000 (≈ 4450 µM)	–
COc1c(NC(=O)c2ccc(NC(=O)c3ccc(NC(=O)[C@H](Cc4ccccn4)NC(=O)c4ccc(NC(=O)/C(C)=C/c5ccc(O)cc5)cc4)cc3)c(OC)c2O)ccc(C(=O)O)c1O [Compound 7, L-2-Py-Albicidin]	250 (≈ 279 µM)	125 (≈ 140 µM)	250 (≈ 279 µM)	2000 (≈ 2230 µM)	–
COc1c(NC(=O)c2ccc(NC(=O)c3ccc(NC(=O)[C@H](Cc4ccncc4)NC(=O)c4ccc(NC(=O)/C(C)=C/c5ccc(O)cc5)cc4)cc3)c(OC)c2O)ccc(C(=O)O)c1O [Compound 9]	500 (≈ 559 µM)	125 (≈ 140 µM)	2000 (≈ 2230 µM)	8000 (≈ 8940 µM)	–
C#CCOc1ccc(/C=C(\C)C(=O)Nc2ccc(C(=O)NC(CC3(C)N=N3)C(=O)Nc3ccc(C(=O)Nc4ccc(C(=O)Nc5ccc(C(=O)O)c(O)c5OC)c(O)c4OC)cc3)cc2)cc1 (centres unmarked) [Compound 10]	63 (≈ 69.2 µM)	≤ 16	125 (≈ 137 µM)	250 (≈ 275 µM)	–
COc1c(NC(=O)c2ccc(NC(=O)c3ccc(NC(=O)[C@H](Cc4c[nH]nn4)NC(=O)c4ccc(NC(=O)/C(C)=C/c5ccc(O)cc5)cc4)c(OC)c3O)c(OC)c2O)ccc(C(=O)O)c1O [Compound 23]	≥ 8000	2000 (≈ 2150 µM)	≥ 8000	≥ 8000	–
COc1c(NC(=O)c2ccc(NC(=O)c3ccc(NC(=O)C4(NC(=O)c5ccc(NC(=O)/C(C)=C/c6ccc(O)cc6)cc5)CCN(C)CC4)cc3)c(OC)c2O)ccc(C(=O)O)c1O [Compound 6, N-Methylpiperidino-Albicidin]	2000 (≈ 2260 µM)	2000 (≈ 2260 µM)	≥ 8000	≥ 8000	–
COc1c(NC(=O)c2ccc(NC(=O)c3ccc(NC(=O)[C@H](Cc4cnn[nH]4)NC(=O)c4ccc(NC(=O)/C(C)=C/c5ccc(O)cc5)cc4)cc3O)c(OC)c2O)ccc(C(=O)O)c1O [Compound 25]	31 (≈ 34.4 µM)	16 (≈ 17.8 µM)	250 (≈ 278 µM)	4000 (≈ 4440 µM)	–
COc1ccc(C#Cc2ccc(C(=O)N[C@@H](Cc3c[nH]nn3)C(=O)Nc3ccc(C(=O)Nc4ccc(C(=O)Nc5ccc(C(=O)O)c(O)c5OC)c(O)c4OC)cc3)cc2)cc1 [Compound 26]	–	–	–	–	MIC (E. coli DSM 1116; DSM1116, gram negative, MHBII media, 37° C., 20 h): 63 µg/mL (≈ 75 µM); MIC (S. typhimurium TA100; gram negative, MHBII media, 37° C.): ≤ 16 µg/mL; MIC (Bacillus subtilis DSM10; DSM10, gram positive, MHBII media, 37° C., 20 h): 250 µg/mL (≈ 298 µM); MIC ([1]; DSM1790, gram positive, MHBII media, 37° C., 20 h): 500 µg/mL (≈ 595 µM)
COc1c(NC(=O)c2ccc(NC(=O)c3ccc(NC(=O)[C@H](CN(C)C)NC(=O)c4ccc(NC(=O)c5ccc(O)cc5)cc4)cc3)c(OC)c2O)ccc(C(=O)O)c1O [Compound 19]	2000 (≈ 2440 µM)	500 (≈ 609 µM)	4000 (≈ 4870 µM)	≥ 8000	–
COc1c(NC(=O)c2ccc(NC(=O)c3ccc(N(C)C(=O)[C@H](Cc4c[nH]nn4)NC(=O)c4ccc(NC(=O)/C(C)=C/c5ccc(O)cc5)cc4)cc3)c(OC)c2O)ccc(C(=O)O)c1O [Compound 22]	≥ 8000	2000 (≈ 2220 µM)	≥ 8000	≥ 8000	–
COc1c(NC(=O)c2ccc(NC(=O)c3ccc(NC(=O)[C@H](CC#N)NC(=O)c4ccc(NC(=O)/C(C)=C/c5ccc(O)cc5)cc4)cc3O)c(OC)c2O)ccc(C(=O)O)c1O [Compound 14]	31 (≈ 36.1 µM)	16 (≈ 18.6 µM)	250 (≈ 291 µM)	–	–
COc1c(NC(=O)c2ccc(NC(=O)c3ccc(NC(=O)[C@H](Cc4c[nH]nn4)NC(=O)c4ccc(NC(=O)/C(C)=C/c5ccc(F)cc5)cc4)cc3)c(OC)c2O)ccc(C(=O)O)c1O [Compound 18]	31 (≈ 35 µM)	≤ 16	125 (≈ 141 µM)	250 (≈ 282 µM)	–
COc1c(NC(=O)c2ccc(NC(=O)c3ccc(NC(=O)[C@H](Cc4cnn[nH]4)NC(=O)c4ccc(NC(=O)/C(C)=C/c5ccc(O)cc5)cc4)c(O)c3)c(OC)c2O)ccc(C(=O)O)c1O [Compound 24]	125 (≈ 139 µM)	63 (≈ 69.9 µM)	1000 (≈ 1110 µM)	8000 (≈ 8880 µM)	–
COc1c(NC(=O)c2ccc(NC(=O)c3ccc(NC(=O)[C@H](CC#N)NC(=O)c4ccc(NC(=O)/C(C)=C/c5ccc(O)cc5)cc4)c(O)c3)c(OC)c2O)ccc(C(=O)O)c1O [Compound 13]	2000 (≈ 2330 µM)	500 (≈ 582 µM)	2000 (≈ 2330 µM)	–	–
COc1c(NC(=O)c2ccc(NC(=O)c3ccc(NC(=O)[C@H](Cc4cccnc4)NC(=O)c4ccc(NC(=O)/C(C)=C/c5ccc(O)cc5)cc4)cc3)c(OC)c2O)ccc(C(=O)O)c1O [Compound 8]	250 (≈ 279 µM)	–	500 (≈ 559 µM)	1000 (≈ 1120 µM)	–
C/C(=C\c1ccc(O)cc1)C(=O)Nc1ccc(C(=O)N[C@@H](CC#N)C(=O)Nc2ccc(C(=O)Nc3ccc(C(=O)Nc4ccc(C(=O)O)c(O)c4)c(O)c3)cc2)cc1 [Compound 12, HMZS-pABA-L-Cya-pABA-HpABA-HpABA-OH]	16000 (≈ 20400 µM)	4000 (≈ 5110 µM)	–	32000 (≈ 40900 µM)	–
COc1c(NC(=O)c2ccc(NC(=O)c3ccc(NC(=O)[C@H](CC#N)NC(=O)c4ccc(NC(=O)/C(C)=C/c5ccc(O)cc5)cc4)cc3)c(OC)c2O)ccc(C(=O)O)c1O [Albicidin]	63 (≈ 74.7 µM)	63 (≈ 74.7 µM)	250 (≈ 297 µM)	1000 (≈ 1190 µM)	–
COc1c(NC(=O)c2ccc(NC(=O)c3ccc(NC(=O)C(CN4CCOCC4)NC(=O)c4ccc(NC(=O)/C(C)=C/c5ccc(O)cc5)cc4)cc3)c(OC)c2O)ccc(C(=O)O)c1O [Compound 4, L-Morpholino-Albicidin]	500 (≈ 554 µM)	63 (≈ 69.8 µM)	250 (≈ 277 µM)	8000 (≈ 8860 µM)	–
O=C(O)c1cn(C2CC2)c2cc(N3CCNCC3)c(F)cc2c1=O [CIP, reference compound]	–	–	–	–	MHK range (unlabelled line below the ATCC strain) [2]: 0.12 to 0.5 mg/L; MHK range (unlabelled line below the ATCC strain) [3]: 0.25 to 1 mg/L; MHK range (unlabelled line below the ATCC strain) [4]: 0.004 to 0.015 mg/L; MHK [5]: 0.015 mg/L; MHK [6]: 0.5 mg/L; MHK [7]: 0.5 mg/L
C#CCOc1ccc(C(=O)Nc2ccc(C(=O)NC(CC3(C)N=N3)C(=O)Nc3ccc(C(=O)Nc4ccc(C(=O)Nc5ccc(C(=O)O)c(O)c5OC)c(O)c4OC)cc3)cc2)cc1 (centres unmarked) [Compound 11]	63 (≈ 72.4 µM)	16 (≈ 18.4 µM)	125 (≈ 144 µM)	125 (≈ 144 µM)	–
